How the values were obtained:
Type in all cases: in vivo, rat
[1] = tested on: MetS animals (high-fructose high-salt diet); assay: Invasive real-time cardiac contractility recording in metabolic syndrome rats; conditions: vs MetS; for Cardiac contractility (contractility index): oral 25 mg/kg/day in the last 6 weeks of 12 weeks diet
Protocol: (§1) Rats used in this study were male Wistar 6-8 weeks old rats weighing 180-200 g (King Fand Medical Research Center, King Abdulaziz University, Jeddah, Saudi Arabia). Clear polypropylene cages were used to house 4 rats each and included access to purified water and standard rodent pellets. Constant animal housing conditions applied constituting of alternating 12 hours light and dark, a temperature of 22±3° C., a relative humidity of 50-60% and adequate ventilation. Experimental protocol was approved by the Research Ethical Committee, Faculty of Pharmacy, King Abdulaziz University, Jeddah, Saudi Arabia and was conducted in accordance with the Saudi Arabia Research Bioethics and Regulations.
Animals were randomly divided into 5 experimental groups; Control (C) rats received regular tap water and food pellets. MetS group (M) in which fructose (10%) was added to drinking water and NaCl (3%) to food pellets. This regimen began in 6-week old rats and continued for 12 weeks. Standard quercetin group (MQ) administered 25 mg/kg quercetin suspension every day in the last 6 weeks of fructose and salt administration. Nano formula vehicle group (MN) received the same volumes of SNEDDS ingredients (Pumpkin seed oil, D-α-tocopheryl polyethylene glycol succinate (TPGS) and PEG 200) without quercetin every day in the last 6 weeks of fructose and salt administration. The nanoformula group (MNQ) administered 25 mg/kg of quercetin in the form of nano-pharmaceutical formulation every day in the last 6 weeks of fructose and salt administration.
Invasive real-time recording of cardiac contractility was carried out according to the method described in previous publication from our laboratories (El-Bassossy et al., 2017). After urethane anaethesia, animals were placed on controlled heating pads, and body temperature, measured via a rectal probe, was maintained at 37° C. A microtip pressure transducer (SPR-320; Millar Instruments, Houston, Tex., USA) was inserted into the right carotid artery and advanced into the left ventricle under pressure control. After stabilization for 5 min, the signals were continuously recorded at a sampling rate of 1000 s−1. The microtip catheter was connected to a PowerLab Data Interface Module connected to a PC running LabChart professional software (version 7.3; ADI Instruments, Bella Vista, Australia) containing a blood pressure module.

[2] = tested on: MetS animals (high-fructose high-salt diet); assay: Cardiac conductivity (surface ECG) recording in metabolic syndrome rats; conditions: oral 25 mg/kg/day in the last 6 weeks, vs MetS, p<0.05
Protocol: Rats used in this study were male Wistar 6-8 weeks old rats weighing 180-200 g (King Fand Medical Research Center, King Abdulaziz University, Jeddah, Saudi Arabia). Clear polypropylene cages were used to house 4 rats each and included access to purified water and standard rodent pellets. Constant animal housing conditions applied constituting of alternating 12 hours light and dark, a temperature of 22±3° C., a relative humidity of 50-60% and adequate ventilation. Experimental protocol was approved by the Research Ethical Committee, Faculty of Pharmacy, King Abdulaziz University, Jeddah, Saudi Arabia and was conducted in accordance with the Saudi Arabia Research Bioethics and Regulations. Animals were randomly divided into 5 experimental groups; Control (C) rats received regular tap water and food pellets. MetS group (M) in which fructose (10%) was added to drinking water and NaCl (3%) to food pellets. This regimen began in 6-week old rats and continued for 12 weeks. Standard quercetin group (MQ) administered 25 mg/kg quercetin suspension every day in the last 6 weeks of fructose and salt administration. […] The standard limb lead II of the surface ECG was recorded by the Powerlab system (ADI Instruments) connected to a PC running LabChart professional software (version 7.3) containing an ECG module, which detects different components of the ECG. […]

[3] = tested on: MetS animals (high-fructose high-salt diet); assay: Blood pressure in metabolic syndrome rats; conditions: oral 25 mg/kg/day in the last 6 weeks, vs MetS, p<0.05
Protocol: as §1
Animals were randomly divided into 5 experimental groups; Control (C) rats received regular tap water and food pellets. MetS group (M) in which fructose (10%) was added to drinking water and NaCl (3%) to food pellets. […]
Invasive real-time recording of cardiac contractility was carried out according to the method described in previous publication from our laboratories (El-Bassossy et al., 2017). After urethane anaethesia, animals were placed on controlled heating pads, and body temperature, measured via a rectal probe, was maintained at 37° C. […] After stabilization for 5 min, the signals were continuously recorded at a sampling rate of 1000 s−1. […]

[4] = tested on: MetS animals (high-fructose high-salt diet); assay: Overall protection from cardiovascular complication of metabolic syndrome in rats; conditions: oral 25 mg/kg/day in the last 6 weeks
Protocol: Rats used in this study were male Wistar 6-8 weeks old rats weighing 180-200 g (King Fand Medical Research Center, King Abdulaziz University, Jeddah, Saudi Arabia). Clear polypropylene cages were used to house 4 rats each and included access to purified water and standard rodent pellets. Constant animal housing conditions applied constituting of alternating 12 hours light and dark, a temperature of 22±3° C., a relative humidity of 50-60% and adequate ventilation. Experimental protocol was approved by the Research Ethical Committee, Faculty of Pharmacy, King Abdulaziz University, Jeddah, Saudi Arabia and was conducted in accordance with the Saudi Arabia Research Bioethics and Regulations. Animals were randomly divided into 5 experimental groups; Control (C) rats received regular tap water and food pellets. MetS group (M) in which fructose (10%) was added to drinking water and NaCl (3%) to food pellets. This regimen began in 6-week old rats and continued for 12 weeks. Standard quercetin group (MQ) administered 25 mg/kg quercetin suspension every day in the last 6 weeks of fructose and salt administration. Nano formula vehicle group (MN) received the same volumes of SNEDDS ingredients (Pumpkin seed oil, D-α-tocopheryl polyethylene glycol succinate (TPGS) and PEG 200) without quercetin every day in the last 6 weeks of fructose and salt administration. […]

[5] = oral 25 mg/kg/day in the last 6 weeks, p<0.05

O=c1c(O)c(-c2ccc(O)c(O)c2)oc2cc(O)cc(O)c12 [regular size quercetin, quercetin]
Cardiac contractility (contractility index) ([1]; p<0.05, 25 mg/kg/day): did not significantly affect | Cardiac contractility (contractility index) ([1]; p<0.05, listed as suspension of quercetin, 25 mg/kg/day): failed to affect | Diastolic function (−dP/dt, dp/dt min) [1, 5]: did not significantly affect | Left ventricular systolic function (dP/dt max) [1, 5]: did not significantly affect | JT interval [2]: did not significantly improve | QTc interval [2]: did not significantly improve | Diastolic blood pressure (DBP) [3]: partially reduced | Systolic blood pressure (SBP) [3]: partially reduced | Cardiovascular function / cardioprotective effect (overall) [4]: failed to completely protect

— patent US10653666B1, “Cardioprotective nano-pharmaceutical formulation” (King Abdulaziz University, priority 2020, dated 2020)
